Measurements taken from PubChem BioAssay (NCI).
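1) Cells in 96-well plates. 2) Compound, 48 h, 5 concentrations. 3) Linear interpolation between surrounding doses. 4) Unreached endpoint = highest concentration. GI50 marks 50% less growth. TGI denotes the concentration required for complete inhibition of growth.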

What was measured:
Assay in all cases: inhibition of tumour cell growth, NCI panel, 48 h
[1] = test system: OVCAR-3 ovarian
[2] = test system: TK-10 renal
[3] = test system: HOP-62 NSCLC
[4] = test system: CCRF-CEM leukemia
[5] = test system: HS 578T breast
[6] = test system: BT-549 breast
[7] = test system: HCT-15 colon
[8] = test system: SK-MEL-2 melanoma
[9] = test system: SNB-19 CNS
[10] = test system: U251 CNS
[11] = test system: NCI/ADR-RES ovarian
[12] = test system: M14 melanoma
[13] = test system: HCC-2998 colon
[14] = test system: SF-268 CNS
[15] = test system: A549 NSCLC
[16] = test system: IGROV1 ovarian
[17] = test system: K-562 leukemia
[18] = test system: UO-31 renal
[19] = test system: SF-539 CNS
[20] = test system: RPMI-8226 leukemia
[21] = test system: KM12 colon
[22] = test system: SF-295 CNS
[23] = test system: NCI-H23 lung
[24] = test system: NCI-H460 lung
[25] = test system: T-47D breast
[26] = test system: SR leukemia
[27] = test system: A498 renal
[28] = test system: SK-OV-3 ovarian
[29] = test system: DU-145 prostate
[30] = test system: OVCAR-8 ovarian
[31] = test system: NCI-H226 lung
[32] = test system: UACC-257 melanoma
[33] = test system: SW-620 colon
[34] = test system: SK-MEL-28 melanoma
[35] = test system: ACHN renal
[36] = test system: 786-0 renal
[37] = test system: MALME-3M melanoma
[38] = test system: HL-60(TB) leukemia
[39] = test system: HT29 colon
[40] = test system: OVCAR-4 ovarian
[41] = test system: MDA-MB-435
[42] = test system: EKVX NSCLC
[43] = test system: CAKI-1 renal
[44] = test system: UACC-62 melanoma
[45] = test system: COLO 205 colon
[46] = test system: NCI-H522 lung
[47] = test system: OVCAR-5 ovarian
[48] = test system: SN12C renal
[49] = test system: LOX IMVI melanoma
[50] = test system: SNB-75 CNS
[51] = test system: HCT-116 colon
[52] = test system: SK-MEL-5 melanoma
[53] = test system: MOLT-4 leukemia
[54] = test system: MCF7 breast
[55] = test system: MDA-MB-231 breast
[56] = test system: RXF 393 renal

Question: How did the GI50 [1] turn out when `C/C(=C(\c1ccc(OCCN2CCCCCC2)cc1)c1ccc(OC(=O)Cc2ccccc2)cc1)c1ccc(Cl)cc1` was run?
Answer: Its GI50 is 2.75 µM.

Question: What about the TGI [1] of the same compound?
Answer: The TGI was 5.22 µM.

Question: And the GI50 [2]?
Answer: Its GI50 is 4.43 µM.

Question: What about the TGI [2] of the same compound?
Answer: The TGI was 16.6 µM.

Question: What about the GI50 [3] of the same compound?
Answer: The GI50 was 2.67 µM.

Question: And the TGI [3]?
Answer: The TGI was 5.59 µM.

Question: What about the GI50 [4] of the same compound?
Answer: The GI50 was 3.2 µM.

Question: And the TGI [4]?
Answer: The TGI was 10.5 µM.

Question: And the GI50 [5]?
Answer: The GI50 was 2.86 µM.

Question: And the TGI [5]?
Answer: The TGI was 6.52 µM.

Question: What about the GI50 [6] of the same compound?
Answer: Its GI50 is 2.2 µM.

Question: What about the TGI [6] of the same compound?
Answer: The TGI was 4.58 µM.

Question: What about the GI50 [7] of the same compound?
Answer: The GI50 was 1.79 µM.

Question: And the TGI [7]?
Answer: The TGI was 4.26 µM.

Question: And the GI50 [8]?
Answer: Its GI50 is 3.98 µM.

Question: And the TGI [8]?
Answer: Its TGI is 8.72 µM.

Question: And the GI50 [9]?
Answer: The GI50 was 2.96 µM.

Question: And the TGI [9]?
Answer: The TGI was 6.41 µM.

Question: What about the GI50 [10] of the same compound?
Answer: Its GI50 is 2.59 µM.

Question: What about the TGI [10] of the same compound?
Answer: Its TGI is 5.03 µM.

Question: What about the GI50 [11] of the same compound?
Answer: The GI50 was 2.99 µM.

Question: What about the TGI [11] of the same compound?
Answer: Its TGI is 6.86 µM.

Question: And the GI50 [12]?
Answer: Its GI50 is 1.87 µM.

Question: And the TGI [12]?
Answer: The TGI was 4.15 µM.

Question: And the GI50 [13]?
Answer: The GI50 was 2.72 µM.

Question: What about the TGI [13] of the same compound?
Answer: The TGI was 5.57 µM.

Question: What about the GI50 [14] of the same compound?
Answer: The GI50 was 2.84 µM.

Question: What about the TGI [14] of the same compound?
Answer: The TGI was 6.11 µM.

Question: What about the GI50 [15] of the same compound?
Answer: Its GI50 is 2.7 µM.

Question: What about the TGI [15] of the same compound?
Answer: Its TGI is 5.41 µM.

Question: What about the GI50 [16] of the same compound?
Answer: Its GI50 is 2.8 µM.

Question: What about the TGI [16] of the same compound?
Answer: Its TGI is 6.51 µM.

Question: What about the GI50 [17] of the same compound?
Answer: The GI50 was 0.77 µM.

Question: What about the TGI [17] of the same compound?
Answer: The TGI was 12.1 µM.

Question: What about the GI50 [18] of the same compound?
Answer: Its GI50 is 2.08 µM.

Question: What about the TGI [18] of the same compound?
Answer: The TGI was 4.21 µM.

Question: And the GI50 [19]?
Answer: Its GI50 is 2.36 µM.

Question: What about the TGI [19] of the same compound?
Answer: The TGI was 4.82 µM.

Question: What about the GI50 [20] of the same compound?
Answer: The GI50 was 1.82 µM.

Question: What about the TGI [20] of the same compound?
Answer: The TGI was 5.47 µM.

Question: What about the GI50 [21] of the same compound?
Answer: Its GI50 is 2.72 µM.

Question: And the TGI [21]?
Answer: Its TGI is 5.77 µM.

Question: And the GI50 [22]?
Answer: The GI50 was 2.56 µM.

Question: What about the TGI [22] of the same compound?
Answer: Its TGI is 4.97 µM.

Question: What about the GI50 [23] of the same compound?
Answer: Its GI50 is 2.81 µM.

Question: What about the TGI [23] of the same compound?
Answer: The TGI was 7.13 µM.

Question: And the GI50 [24]?
Answer: The GI50 was 2.64 µM.

Question: What about the TGI [24] of the same compound?
Answer: The TGI was 5.2 µM.

Question: What about the GI50 [25] of the same compound?
Answer: Its GI50 is 1.95 µM.

Question: And the TGI [25]?
Answer: The TGI was 6.42 µM.

Question: And the GI50 [26]?
Answer: The GI50 was 0.556 µM.

Question: And the TGI [26]?
Answer: The TGI was 6.87 µM.

Question: And the GI50 [27]?
Answer: The GI50 was 6.35 µM.

Question: And the TGI [27]?
Answer: The TGI was 16.7 µM.

Question: What about the GI50 [28] of the same compound?
Answer: Its GI50 is 4.87 µM.

Question: What about the TGI [28] of the same compound?
Answer: Its TGI is 15.6 µM.

Question: What about the GI50 [29] of the same compound?
Answer: Its GI50 is 3.15 µM.

Question: And the TGI [29]?
Answer: Its TGI is 6.32 µM.

Question: And the GI50 [30]?
Answer: Its GI50 is 3.24 µM.

Question: What about the TGI [30] of the same compound?
Answer: Its TGI is 6.35 µM.

Question: And the GI50 [31]?
Answer: Its GI50 is 2.94 µM.

Question: And the TGI [31]?
Answer: Its TGI is 7.32 µM.

Question: And the GI50 [32]?
Answer: The GI50 was 3.25 µM.

Question: And the TGI [32]?
Answer: Its TGI is 6.22 µM.

Question: What about the GI50 [33] of the same compound?
Answer: Its GI50 is 2.56 µM.

Question: And the TGI [33]?
Answer: Its TGI is 5.25 µM.

Question: What about the GI50 [34] of the same compound?
Answer: Its GI50 is 2.52 µM.

Question: What about the TGI [34] of the same compound?
Answer: The TGI was 5.03 µM.

Question: What about the GI50 [35] of the same compound?
Answer: Its GI50 is 2.63 µM.

Question: And the TGI [35]?
Answer: The TGI was 4.93 µM.

Question: And the GI50 [36]?
Answer: The GI50 was 1.78 µM.

Question: And the TGI [36]?
Answer: The TGI was 3.85 µM.

Question: And the GI50 [37]?
Answer: Its GI50 is 2.86 µM.

Question: And the TGI [37]?
Answer: Its TGI is 5.71 µM.

Question: And the GI50 [38]?
Answer: Its GI50 is 3.5 µM.

Question: What about the TGI [38] of the same compound?
Answer: Its TGI is 8.17 µM.

Question: And the GI50 [39]?
Answer: Its GI50 is 1.05 µM.

Question: And the TGI [39]?
Answer: Its TGI is 4.01 µM.

Question: What about the GI50 [40] of the same compound?
Answer: Its GI50 is 2.82 µM.

Question: What about the TGI [40] of the same compound?
Answer: Its TGI is 7.05 µM.

Question: What about the GI50 [41] of the same compound?
Answer: The GI50 was 2.46 µM.

Question: And the TGI [41]?
Answer: The TGI was 4.66 µM.

Question: What about the GI50 [42] of the same compound?
Answer: The GI50 was 2.6 µM.

Question: What about the TGI [42] of the same compound?
Answer: The TGI was 7.8 µM.

Question: What about the GI50 [43] of the same compound?
Answer: The GI50 was 2.74 µM.

Question: And the TGI [43]?
Answer: The TGI was 5.37 µM.

Question: And the GI50 [44]?
Answer: The GI50 was 2.73 µM.

Question: And the TGI [44]?
Answer: Its TGI is 5.2 µM.

Question: And the GI50 [45]?
Answer: The GI50 was 2.8 µM.

Question: And the TGI [45]?
Answer: Its TGI is 5.56 µM.

Question: What about the GI50 [46] of the same compound?
Answer: The GI50 was 3.6 µM.

Question: What about the TGI [46] of the same compound?
Answer: The TGI was 6.87 µM.

Question: And the GI50 [47]?
Answer: Its GI50 is 2.77 µM.

Question: And the TGI [47]?
Answer: The TGI was 6.45 µM.

Question: What about the GI50 [48] of the same compound?
Answer: The GI50 was 2.56 µM.

Question: And the TGI [48]?
Answer: The TGI was 5.07 µM.

Question: And the GI50 [49]?
Answer: The GI50 was 2.51 µM.

Question: What about the TGI [49] of the same compound?
Answer: Its TGI is 4.77 µM.

Question: What about the GI50 [50] of the same compound?
Answer: The GI50 was 2.3 µM.

Question: And the TGI [50]?
Answer: Its TGI is 5.33 µM.

Question: What about the GI50 [51] of the same compound?
Answer: The GI50 was 1.32 µM.

Question: And the TGI [51]?
Answer: Its TGI is 3.47 µM.

Question: And the GI50 [52]?
Answer: Its GI50 is 2.36 µM.

Question: What about the TGI [52] of the same compound?
Answer: Its TGI is 4.58 µM.

Question: And the GI50 [53]?
Answer: The GI50 was 3.09 µM.

Question: What about the TGI [53] of the same compound?
Answer: Its TGI is 13.4 µM.

Question: What about the GI50 [54] of the same compound?
Answer: Its GI50 is 0.382 µM.

Question: And the TGI [54]?
Answer: The TGI was 3.83 µM.

Question: And the GI50 [55]?
Answer: The GI50 was 3.04 µM.

Question: And the TGI [55]?
Answer: The TGI was 5.69 µM.

Question: And the GI50 [56]?
Answer: The GI50 was 2.03 µM.

Question: And the TGI [56]?
Answer: Its TGI is 4.45 µM.
